Results taken from patent publication US7323314B2, “Members of the capsaicin/vanilloid receptor family of proteins and uses thereof” (Bayer HealthCare AG, priority 1998, dated 2008).
Values belong to the compound of their own block, whether it stands above or below them.

How the values were obtained:
Human VR2 [1] = target: T1, Human VR2 (Homo sapiens, UniProt Q9Y5S1); assay: Binding of [3H]-resiniferatoxin to membranes isolated from HEK293 cell homogenates (VR2); conditions: 0.1-10 nM concentration
T1 construct: expressed in transfected cells; host or cells: Xenopus oocytes injected with cRNA
T1 sequence (Q9Y5S1 1-764): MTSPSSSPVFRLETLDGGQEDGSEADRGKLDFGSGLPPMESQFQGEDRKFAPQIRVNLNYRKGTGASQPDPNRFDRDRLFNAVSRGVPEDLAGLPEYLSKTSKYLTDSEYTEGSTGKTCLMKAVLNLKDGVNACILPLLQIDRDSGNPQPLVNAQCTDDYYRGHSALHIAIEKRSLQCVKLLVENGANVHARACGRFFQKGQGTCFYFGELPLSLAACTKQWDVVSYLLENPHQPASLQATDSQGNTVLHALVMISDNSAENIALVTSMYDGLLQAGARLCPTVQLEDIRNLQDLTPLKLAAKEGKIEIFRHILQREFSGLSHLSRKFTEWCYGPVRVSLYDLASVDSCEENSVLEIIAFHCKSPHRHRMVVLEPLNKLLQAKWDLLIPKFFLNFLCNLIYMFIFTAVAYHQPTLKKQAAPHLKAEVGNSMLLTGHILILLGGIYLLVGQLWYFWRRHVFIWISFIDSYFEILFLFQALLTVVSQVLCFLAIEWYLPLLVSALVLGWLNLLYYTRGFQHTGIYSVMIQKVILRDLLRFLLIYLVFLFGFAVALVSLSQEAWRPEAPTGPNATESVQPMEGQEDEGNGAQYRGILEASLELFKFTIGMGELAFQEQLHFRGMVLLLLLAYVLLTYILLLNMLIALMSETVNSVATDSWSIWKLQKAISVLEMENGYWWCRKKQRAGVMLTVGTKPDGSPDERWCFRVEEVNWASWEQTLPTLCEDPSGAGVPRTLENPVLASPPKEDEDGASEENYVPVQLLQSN

Human VR2 [2] = target: T1, Human VR2; assay: Whole-cell patch-clamp of VR2 transiently expressed in HEK293 cells; type: cell-based
Protocol: Human VR2 was functionally characterized in both HEK293 cells and Xenopus oocytes using electrophysiological methods. VR2 (in the pcDNA3.1 vector purchased by Invitrogen) was transiently expressed in HEK293 cells (ATCC) and recordings were performed 48 hours after transfection of cells using the whole-cell patch-clamp method (described in Bertil Hille, Ionin Channels of excitable membranes, 1992; Hammill et al. (1981) Pluger Arch. 391:85-100).

human VR1 = target: T2, human VR1 (Homo sapiens, UniProt Q8NER1, A11T/S41P/T469I); assay: Binding of [3H]-resiniferatoxin to membranes isolated from HEK293 cell homogenates (VR1); conditions: 0.1-10 nM concentration
T2 construct: expressed in transfected cells; host or cells: HEK293 cells (membranes)

Human VR2 [3] = target: T1, Human VR2; assay: Two-electrode voltage-clamp of VR2 in Xenopus oocytes; type: cell-based; conditions: heat stimulation (48-50° C.), 1-10 μM concentration
Protocol: For the oocyte studies, human VR2 was subcloned into an oocyte expression vector containing 5′- and 3′-UTR of Xenopus β-globin (Chiara et al. (1999) Biochemistry 38(20)6689-6698). In vitro trasncription was carried out as described in Chiara et al. (supra) and cRNA (10-100 ng) was then injected into the oocytes. VR2 function was characterized in the oocytes 48 hours after cRNA injection using a standard two-electrode voltage-clamp.

T2 sequence (Q8NER1 whole entry A11T/S41P/T469I): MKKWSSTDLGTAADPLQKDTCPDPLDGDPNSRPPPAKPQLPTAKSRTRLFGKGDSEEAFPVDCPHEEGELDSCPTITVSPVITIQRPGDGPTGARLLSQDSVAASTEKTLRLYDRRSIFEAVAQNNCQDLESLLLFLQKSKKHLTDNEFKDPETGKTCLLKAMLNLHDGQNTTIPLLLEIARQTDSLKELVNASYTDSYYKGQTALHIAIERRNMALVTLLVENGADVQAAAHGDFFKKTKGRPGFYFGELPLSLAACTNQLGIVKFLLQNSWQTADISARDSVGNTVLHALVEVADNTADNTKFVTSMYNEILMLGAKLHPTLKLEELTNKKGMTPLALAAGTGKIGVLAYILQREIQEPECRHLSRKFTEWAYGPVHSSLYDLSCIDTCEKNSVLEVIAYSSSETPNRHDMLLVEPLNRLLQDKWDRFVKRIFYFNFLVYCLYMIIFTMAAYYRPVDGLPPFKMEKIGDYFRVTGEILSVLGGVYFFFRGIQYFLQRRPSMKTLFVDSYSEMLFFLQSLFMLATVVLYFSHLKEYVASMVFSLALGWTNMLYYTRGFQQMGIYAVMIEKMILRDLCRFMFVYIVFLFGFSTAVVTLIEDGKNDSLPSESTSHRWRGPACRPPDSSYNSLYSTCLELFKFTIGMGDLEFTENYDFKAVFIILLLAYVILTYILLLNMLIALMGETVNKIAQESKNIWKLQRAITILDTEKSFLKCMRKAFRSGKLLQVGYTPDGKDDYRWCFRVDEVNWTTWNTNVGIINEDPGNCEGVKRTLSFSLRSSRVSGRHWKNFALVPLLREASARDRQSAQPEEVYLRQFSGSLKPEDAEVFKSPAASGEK

SMILES: C=C(C)[C@]12C[C@@H](C)[C@@]34O[C@](Cc5ccccc5)(O[C@@H]1[C@@H]3C=C(COC(=O)Cc1ccc(O)c(OC)c1)C[C@]1(O)C(=O)C(C)=C[C@@H]41)O2 [resiniferatoxin]
- specific binding to VR2 (Human VR2 [1]): no specific binding
- induction of currents from VR2 (Human VR2 [2]; 0.1-3 μM concentration): do not induce any currents
- binding to human VR1 (human VR1): high affinities

- block of heat-evoked currents of VR2 (Human VR2 [2]; heat stimulation (>50° C.), 10 μM concentration): reversibly blocked
SMILES: Oc1cc2c(cc1O)CN(C(=S)NCCc1ccc(Cl)cc1)CCC2 [capsazepin, capsazepine]
- block of the heat response of VR2 (Human VR2 [3]): blocks the heat response of VR2 reversibly

- induction of currents from VR2 (Human VR2 [2]; 1-10 μM concentration): do not induce any currents
SMILES: COc1cc(CNC(=O)CCCC/C=C/C(C)C)ccc1O [Capsaicin, capsaicin]
